Assay results as given in patent EP0643558B1, “SANITIZING COMPOSITIONS” (ECOLAB INC., priority 1991, dated 1992).

What was measured:
Format in all cases: cell-based
Escherichia coli = assay: A.O.A.C. Sanitizing Test (Germicidal and Detergent Sanitizing Action of Disinfectants, para. 960.09); details: use solutions, 0.1 wt-% fatty acid + 0.1 wt-% lactic acid (88% w/v) in distilled water, solution pH 2.96-2.97
Description: (§1) A sanitizer is an agent that reduces the number of bacterial contaminants to safe levels as judged by public health requirements. Practically, a sanitizer must result in 99.999% reduction (5 log order reduction) for given organisms as defined by Germicidal and Detergent Sanitizing Action of Disinfectants, Official Methods of Analysis of the Association of Official Analytical Chemists, paragraph 960.09 and applicable sections, 15th Edition, 1990 (EPA Guideline 91-2). In common practice, substances that are applied to food contact surfaces for antimicrobial purposes must meet this requirement. It has now been discovered that a sanitizer comprising octanoic acid (C8) plus a food additive organic or inorganic acid buffer does indeed meet all of the criteria set forth for a food grade sanitizer. […] Table 1A is a summary of compositions and Table 1B is a summary of their bactericidal activity as determined by the official A.O.A.C. Sanitizing Test. (Germicidal and Detergent Sanitizing Action of Disinfectants, Official Methods of Analysis of the Association of Official Analytical Chemists, paragraph 960.09 and applicable sections, 15th Edition, 1990, EPA guideline 91-2). The octanoic acid is indeed very unique, peaking out at seven log order reductions with both a gram positive (Staphylococcus aureus) and a gram negative (Escherichia coli) bacteria and passes the test requirement for a sanitizing agent. […] Examples IA through IE represent use solutions of the sanitizers.

Staphylococcus aureus = assay: as above; details: use solutions, 0.1 wt-% fatty acid + 0.1 wt-% lactic acid (88% w/v) in distilled water, solution pH 2.96-2.97
Description: as §1

Aspergillus niger = assay: Fungicidal activity, A.O.A.C. Disinfection Test Method; details: spores of Aspergillus niger, compared with the other test organisms of Table 5B
Description: A disinfectant is an agent that kills all vegetative cells including most recognized pathogenic microorganisms. As such, it must pass a more stringent bactericidal test; the A.O.A.C. Use Dilution Methods, Official Methods of Analysis of the Association of Official Analytical Chemists, paragraph 955.14 and applicable sections, 15th Edition, 1990 (EPA Guideline 91-2). […] Disinfection Test Method. […]

For `CCCCCCCCCC(=O)O` [decanoic acid, reference compound], which “Results Log Reductions Col. Forming Units E. coli” value (Escherichia coli) is on record?
The value was “possesses some activity”.

And the “Results Log Reductions Col. Forming Units S. aureus” value (Staphylococcus aureus)?
The value was “possesses some activity”.

Which “Results Log Reductions Col. Forming Units E. coli” value (Escherichia coli) does the source give for `CCCCCCCC(=O)O` [octanoic acid, Octanoic acid] here?
Its value is “seven”.

And the “Results Log Reductions Col. Forming Units S. aureus” value (Staphylococcus aureus)?
Its value is “seven”.

What about the “concentration for complete kill” value (Aspergillus niger) of the same compound?
The value was “required a higher concentration for complete kill”.
